Publication PMC9516332 (Frontiers in Oncology, 2022)
pIC50: −log10 of the molar value. Where two headings read alike, the source gives them in different places.

What was measured:
AP-1060 (ETV6-NTRK3) = assay: Cell viability assay; details: read-out: IC50 in cell proliferation assay
134 cancer cell lines = assay: Cell viability assay (ATPlite, 72 hours), IC50 on cancer cell line panel

CNC(=O)c1ccc(-c2cnc3ncc(Cc4ccc5ncccc5c4)n3n2)cc1F [capmatinib]
pIC50 (AP-1060 (ETV6-NTRK3)): < 4.50 | pIC50 (134 cancer cell lines; HEC-6, read-out: IC50 in cell proliferation assay): < 4.50 | pIC50 (134 cancer cell lines; Homo sapiens, 769-P, read-out: IC50 in cell proliferation assay): < 4.50 | pIC50 (134 cancer cell lines; Homo sapiens, 786-0, read-out: IC50 in cell proliferation assay): < 4.50 | pIC50 (134 cancer cell lines; Homo sapiens, A 172, read-out: IC50 in cell proliferation assay): < 4.50 | pIC50 (134 cancer cell lines; Homo sapiens, A204, read-out: IC50 in cell proliferation assay): < 4.50 | pIC50 (134 cancer cell lines; Homo sapiens, A498, read-out: IC50 in cell proliferation assay): < 4.50 | pIC50 (134 cancer cell lines; Homo sapiens, A549, read-out: IC50 in cell proliferation assay): < 4.50 | pIC50 (134 cancer cell lines; Homo sapiens, A704, read-out: IC50 in cell proliferation assay): < 4.50 | pIC50 (134 cancer cell lines; Homo sapiens, A-375, read-out: IC50 in cell proliferation assay): < 4.50 | pIC50 (134 cancer cell lines; Homo sapiens, A-427, read-out: IC50 in cell proliferation assay): 4.53 | pIC50 (134 cancer cell lines; Homo sapiens, ACHN, read-out: IC50 in cell proliferation assay): < 4.50 | pIC50 (134 cancer cell lines; Homo sapiens, AN3-CA, read-out: IC50 in cell proliferation assay): < 4.50 | pIC50 (134 cancer cell lines; Homo sapiens, ASPC1, read-out: IC50 in cell proliferation assay): < 4.50 | pIC50 (134 cancer cell lines; Homo sapiens, AU565, read-out: IC50 in cell proliferation assay): 5.26 | pIC50 (134 cancer cell lines; Homo sapiens, BT-20, read-out: IC50 in cell proliferation assay): < 4.50 | pIC50 (134 cancer cell lines; Homo sapiens, BT-474, read-out: IC50 in cell proliferation assay): < 4.50 | pIC50 (134 cancer cell lines; Homo sapiens, BT-549, read-out: IC50 in cell proliferation assay): < 4.50 | pIC50 (134 cancer cell lines; Homo sapiens, BXPC-3, read-out: IC50 in cell proliferation assay): < 4.50 | pIC50 (134 cancer cell lines; Homo sapiens, C-33-A, read-out: IC50 in cell proliferation assay): < 4.50 | pIC50 (134 cancer cell lines; Homo sapiens, CAL-27, read-out: IC50 in cell proliferation assay): < 4.50 | pIC50 (134 cancer cell lines; Homo sapiens, CCF-STTG1, read-out: IC50 in cell proliferation assay): < 4.50 | pIC50 (134 cancer cell lines; Homo sapiens, CCRF-CEM, read-out: IC50 in cell proliferation assay): 4.55 | pIC50 (134 cancer cell lines; Homo sapiens, COLO 205, read-out: IC50 in cell proliferation assay): < 4.50 | pIC50 (134 cancer cell lines; Homo sapiens, COLO-829, read-out: IC50 in cell proliferation assay): < 4.50 | pIC50 (134 cancer cell lines; Homo sapiens, DLD-1, read-out: IC50 in cell proliferation assay): < 4.50 | pIC50 (134 cancer cell lines; Homo sapiens, DU-145, read-out: IC50 in cell proliferation assay): < 4.50 | pIC50 (134 cancer cell lines; Homo sapiens, DU-4475, read-out: IC50 in cell proliferation assay): 4.67 | pIC50 (134 cancer cell lines; Homo sapiens, Daoy, read-out: IC50 in cell proliferation assay): < 4.50 | pIC50 (134 cancer cell lines; Homo sapiens, DoTc2-4510, read-out: IC50 in cell proliferation assay): < 4.50 | pIC50 (134 cancer cell lines; Homo sapiens, EOL1, read-out: IC50 in cell proliferation assay): < 4.50 | pIC50 (134 cancer cell lines; Homo sapiens, FaDu, read-out: IC50 in cell proliferation assay): < 4.50 | pIC50 (134 cancer cell lines; Homo sapiens, G-361, read-out: IC50 in cell proliferation assay): < 4.50 | pIC50 (134 cancer cell lines; Homo sapiens, HCC827, read-out: IC50 in cell proliferation assay): 5.08 | pIC50 (134 cancer cell lines; Homo sapiens, HCC4006, read-out: IC50 in cell proliferation assay): < 4.50 | pIC50 (134 cancer cell lines; Homo sapiens, HCT-15, read-out: IC50 in cell proliferation assay): < 4.50 | pIC50 (134 cancer cell lines; Homo sapiens, HCT-116, read-out: IC50 in cell proliferation assay): < 4.50 | pIC50 (134 cancer cell lines; Homo sapiens, HEC-1, read-out: IC50 in cell proliferation assay): < 4.50 | pIC50 (134 cancer cell lines; Homo sapiens, HEC-1B, read-out: IC50 in cell proliferation assay): < 4.50 | pIC50 (134 cancer cell lines; Homo sapiens, HL-60, read-out: IC50 in cell proliferation assay): < 4.50 | pIC50 (134 cancer cell lines; Homo sapiens, HT, read-out: IC50 in cell proliferation assay): < 4.50 | pIC50 (134 cancer cell lines; Homo sapiens, HT-1080, read-out: IC50 in cell proliferation assay): < 4.50 | pIC50 (134 cancer cell lines; Homo sapiens, Hs746T, read-out: IC50 in cell proliferation assay): 8.91 | pIC50 (134 cancer cell lines; Homo sapiens, Hs-578T, read-out: IC50 in cell proliferation assay): < 4.50 | pIC50 (134 cancer cell lines; Homo sapiens, HuTu80, read-out: IC50 in cell proliferation assay): < 4.50 | pIC50 (134 cancer cell lines; Homo sapiens, J82, read-out: IC50 in cell proliferation assay): < 4.50 | pIC50 (134 cancer cell lines; Homo sapiens, Jurkat E6.1, read-out: IC50 in cell proliferation assay): < 4.50 | pIC50 (134 cancer cell lines; Homo sapiens, K562, read-out: IC50 in cell proliferation assay): < 4.50 | pIC50 (134 cancer cell lines; Homo sapiens, KATO III, read-out: IC50 in cell proliferation assay): < 4.50 | pIC50 (134 cancer cell lines; Homo sapiens, KG-1, read-out: IC50 in cell proliferation assay): < 4.50 | pIC50 (134 cancer cell lines; Homo sapiens, KLE, read-out: IC50 in cell proliferation assay): < 4.50 | pIC50 (134 cancer cell lines; Homo sapiens, KMS-11, read-out: IC50 in cell proliferation assay): 5.03 | pIC50 (134 cancer cell lines; Homo sapiens, KU812, read-out: IC50 in cell proliferation assay): < 4.50 | pIC50 (134 cancer cell lines; Homo sapiens, Kasumi 1, read-out: IC50 in cell proliferation assay): 4.60 | pIC50 (134 cancer cell lines; Homo sapiens, LC-2-ad, read-out: IC50 in cell proliferation assay): < 4.50 | pIC50 (134 cancer cell lines; Homo sapiens, LNCaP-Clone-FGC, read-out: IC50 in cell proliferation assay): < 4.50 | pIC50 (134 cancer cell lines; Homo sapiens, LS174T, read-out: IC50 in cell proliferation assay): < 4.50 | pIC50 (134 cancer cell lines; Homo sapiens, LS-411N, read-out: IC50 in cell proliferation assay): < 4.50
